# Source: the OPERA property sets (Mansouri et al. 2018)
# Settings: for log10 BCF / log10 biotransformation half-life (days): fish
SMILES,boiling point [°C],melting point [°C],further results
CCCCCO[N+](=O)[O-],157,,log10 Henry constant (atm·m³/mol): -2.78; log10 vapour pressure (mmHg): 0.705
COc1cc2c(c(O)c1OC)C(C)N(C)CC2 (centres undefined),,112,
CN(C)C(=O)Nc1cccc(C(F)(F)F)c1,,164,log10 Koc (L/kg): 1.9; log10 vapour pressure (mmHg): -6.03
C=COCC(F)(F)F,42.5,,
CCN1C(=O)CCC1=O,236,26,
O=C1CC(=O)NC(=O)N1,,248,log10 vapour pressure (mmHg): -7.82; ready biodegradability: readily biodegradable
CCCC[Si]1(C)O[Si](C)(CCCC)O[Si](C)(CCCC)O[Si](C)(CCCC)O1 (centres undefined),291,,
CC1CCCC1(C)C (centres undefined),114,-21.6,
O=C(O)CBr,208,50,log10 Henry constant (atm·m³/mol): -8.19; log10 vapour pressure (mmHg): -0.926
C=CC(=C)F,12,,
c1ccc(CN(CC2=NCCN2)c2ccccc2)cc1,,120,
CCC(C)C(C)C (centres undefined),89.7,,log10 biodegradation half-life (days): 0.845; log10 vapour pressure (mmHg): 1.84
CCN1C[C@]2(COC)[C@H](O)C[C@H](OC)[C@]34C1[C@H]([C@H](OC)[C@H]23)[C@]1(OC(C)=O)[C@H]2[C@@H](OC(=O)c3ccccc3)[C@](O)(C[C@H]24)[C@@H](OC)[C@@H]1O,,204,
C[C@@H]([C@H](O)c1ccccc1)N(C)C,,87.5,
Cc1cccc(N)c1N,255,63.5,log10 vapour pressure (mmHg): -3.26
CCCCC(CC)COCCO (centres undefined),229,,
FC(F)OC(F)F,6.35,-123,
N#CCCOCCC#N,306,-26.3,log10 vapour pressure (mmHg): -3.76; ready biodegradability: readily biodegradable
CC(C)CC(C)(C)C(C)C,153,,
CCSc1nnc(C(C)(C)C)c(=O)n1N,,95,log10 vapour pressure (mmHg): -5.12
CCN(CC)C(=O)COC(=O)c1ccccc1,,72.5,
C1N2CN3CN1CN(C2)C3,,,log10 vapour pressure (mmHg): -2.4; ready biodegradability: readily biodegradable
Oc1ccc2cccc(Cl)c2c1,308,101,
CCOC(=O)c1ccco1,197,34.5,log10 vapour pressure (mmHg): -0.432

SMILES,boiling point [°C],melting point [°C],further results
CCCCCCNC(=O)C=Cc1ccc(O)c(O)c1,,142,
CC1(C)CC=CCC1,117,-74.4,
CNCCO,158,-4.5,log10 vapour pressure (mmHg): 0.0346; ready biodegradability: readily biodegradable
CCOc1ccc(NC(=O)CC(C)O)cc1 (centres undefined),,160,
CC=C1CCCC1,115,-130,
CCC(C)(C)CC(C)(C)C,154,,
COc1cccc([N+](=O)[O-])c1,258,38.5,ready biodegradability: not readily biodegradable; log10 BCF: 0.78; log10 biotransformation half-life (days): -1.04
Cc1cccc([N+](=O)[O-])c1,232,15.5,log10 Henry constant (atm·m³/mol): -5.03; log10 vapour pressure (mmHg): -0.687; ready biodegradability: not readily biodegradable; log10 BCF: 1.08; log10 biotransformation half-life (days): -0.79
CCCC(CC)C(C)(C)C (centres undefined),156,,
N#Cc1ccccc1Cl,232,46.3,ready biodegradability: not readily biodegradable
CCOC(=O)N1C(=O)c2ccccc2C1=O,,91,
Nc1cc2c3ccccc3ccc2c2ccccc12,,210,log10 Koc (L/kg): 5.21
C1CCCCCCCCCCC1,247,60.4,ready biodegradability: not readily biodegradable; log10 BCF: 3.91; log10 biotransformation half-life (days): 1.33
O=C(OC(=O)C(Cl)(Cl)Cl)C(Cl)(Cl)Cl,,,log10 vapour pressure (mmHg): -0.908
N#Cc1ccccc1Br,252,55.5,
O=[N+]([O-])c1ccc2c(c1)oc1ccccc12,,182,
C[Si](C)(Cl)O[Si](C)(C)Cl,138,-37.5,
FC(F)(F)C(F)(F)C(F)(F)C(F)(F)C(F)(F)C(F)(F)C(F)(F)C(F)(F)Br,141,,
FB(F)c1ccccc1,98,-36.2,
O=[N+]([O-])c1ccc(Cl)cc1,242,83.5,log10 Henry constant (atm·m³/mol): -5.31; log10 vapour pressure (mmHg): -1.66; ready biodegradability: not readily biodegradable; log10 BCF: 1.3; log10 biotransformation half-life (days): -0.48
CC1OC(C)OC(C)O1 (centres undefined),124,12.6,log10 vapour pressure (mmHg): 1.04; ready biodegradability: not readily biodegradable; log10 BCF: 0.48
O=Cc1ccc(O)cc1O,,135,
COP(=S)(OC)SCn1nnc2ccccc2c1=O,,73,log10 Koc (L/kg): 2.28; log10 vapour pressure (mmHg): -5.8; ready biodegradability: readily biodegradable
Nc1ccc(Sc2ccc([N+](=O)[O-])cc2)cc1,,144,

SMILES,boiling point [°C],melting point [°C],further results
C=CCCCCCCCCCCCCCCCCCC,341,28.5,log10 vapour pressure (mmHg): -4.98
O=C1OS(=O)(=O)c2ccccc21,,130,
O=C(O)C1CCNCC1,,336,
N=C(N)NC(=N)N,,136,
O=[N+]([O-])c1cc(C2CCCCC2)c(O)c([N+](=O)[O-])c1,,107,
CCCC(=O)C1=C(O)C(C)(C)C(O)=C(Cc2c(O)c(C)c(O)c(C(=O)CCC)c2O)C1=O,,156,
CC(=O)Nc1ccccc1O,,208,ready biodegradability: readily biodegradable
Cc1cccc2c1CC=C2,209,,
C1=CSCC1,112,,
Cc1c(F)cccc1Cl,154,,
Cc1ccc(S(=O)(=O)NC(=O)NC2CCCCC2)cc1,,175,
CCCCCCCCCCCCN1CC(C(=O)OC)CC1=O (centres undefined),,27.5,
CC(=O)[O-].[NH4+],,114,
C[C@H]1C[C@H]1C(=O)O,191,,
NC(=O)C[C@H](O)C(=O)O,,148,
OCC(F)(F)C(F)(F)C(F)(F)C(F)(F)C(F)(F)C(F)F,,,ready biodegradability: not readily biodegradable
CC1CC(O)CC(C)(C)C1 (centres undefined),196,46.5,
O=C(NCO)c1cccnc1,,142,
CCC1(c2ccccc2)CCC(=O)NC1=O (centres undefined),,84,
Cc1cc(CC(C)CC(C)(C)C)n(O)c(=O)c1 (centres undefined),,108,
COC(=O)Nc1ccc(Cl)c(Cl)c1,,,log10 Koc (L/kg): 2.74
Nc1ccc(F)cc1F,170,-7.5,
O=C(c1ccc(Cl)cc1)c1ccccc1Cl,,67,
FC(F)(Cl)CCl,46.8,-101,log10 vapour pressure (mmHg): 2.53

SMILES,boiling point [°C],melting point [°C],further results
C=Cc1ccc(C=C)cc1,,31,ready biodegradability: not readily biodegradable; log10 BCF: 2.48; log10 biotransformation half-life (days): 0.5
CN(C)c1ccc2c(c1)Sc1cc(N(C)C)ccc1N2C(=O)c1ccccc1,,195,
c1ccc2c(c1)nnn2C1CCCCC1,,104,
Cc1cnc(C)cn1,155,15,
CCOC(=O)C1CC1,134,,
CC(C)=C1OC(=O)C1(C)C,170,-18,
CCCCCCCC/C=C\CCCCCCCC(=O)[O-].[Na+],,234,
c1ccc2cc3c(cc2c1)-c1cccc2cccc-3c12,480,217,log10 Henry constant (atm·m³/mol): -6.23; log10 Koc (L/kg): 4.34; log10 biodegradation half-life (days): 2.55; log10 vapour pressure (mmHg): -9.02; ready biodegradability: not readily biodegradable; log10 biotransformation half-life (days): -0.06
O=C(c1ccccc1)C(O)c1ccccc1 (centres undefined),,,ready biodegradability: readily biodegradable
O=Cc1ccc(Cl)cc1Cl,233,72,
CC(C)(C)C1CCCCC1,172,-41.2,log10 vapour pressure (mmHg): 0.368
C[C@H]1[C@H](C)CC[C@]2(C)CC[C@]3(C)C(=CC[C@@H]4[C@@]5(C)CC[C@H](O)C(C)(C)[C@@H]5CC[C@]43C)[C@H]12,,186,
Cc1ccc(CCc2ccc(C)cc2)cc1,,85,
CC1=NCCN1,196,107,
CC1(C)[C@@H]2CC[C@@](C)(C2)[C@@H]1O,,45.8,
O=C(CCCN1CCC(n2c(=S)[nH]c3ccccc32)CC1)c1ccc(F)cc1,,202,
NNc1cccc2ccccc12,,117,
CN(C)c1cccc2c(S(N)(=O)=O)cccc12,,220,
Cc1ccc(Cc2ccccc2)cc1,286,-30,
C=CF,-72,-160,log10 vapour pressure (mmHg): 4.3
C[Si](C)(C)N[Si](C)(C)C,125,,log10 vapour pressure (mmHg): 1.14
COc1ccc(C)cc1N,235,53,ready biodegradability: not readily biodegradable; log10 BCF: 0.55; log10 biotransformation half-life (days): -1
C[C@H]1C[C@H]2[C@@H]3CCC4=CC(=O)C=C[C@]4(C)[C@H]3C(=O)C[C@]2(C)[C@@]1(O)C(=O)CO,,202,
CCOS(=O)(=O)OCC,208,-24,log10 vapour pressure (mmHg): -0.674; ready biodegradability: readily biodegradable

SMILES,boiling point [°C],melting point [°C],further results
O=C(O)Cc1cccc(Cl)c1,,78.8,
CCCCCCCCCCOC(C)=O,244,-15,
CC(C)(C)CC(C)(C)c1ccc(O)cc1,,84.5,log10 vapour pressure (mmHg): -3.32; ready biodegradability: not readily biodegradable; log10 BCF: 2.46; log10 biotransformation half-life (days): -0.04
Oc1c(Cl)cc(Cl)c2cccnc12,,180,
O=c1n(CCCN2CCN(c3cccc(Cl)c3)CC2)nc2ccccn12,,87,
Cc1ccc(Cl)cc1O,,,ready biodegradability: not readily biodegradable
c1cnc2ncncc2n1,,140,
CC1CCCSC1 (centres undefined),158,-60,
C=C(C)C(=O)OCCN(C)C,186,-30,
Fc1ccccc1C1=NCC(=S)N(CC(F)(F)F)c2ccc(Cl)cc21,,138,
C=CCc1cc(OC)c2c(c1OC)OCO2,294,29.5,
CC(C)OC=O,68.2,-80,log10 vapour pressure (mmHg): 2.14
COC(=O)CCC(C)=O,196,,
Cc1c[nH]c2ccccc12,266,97.5,log10 vapour pressure (mmHg): -2.26
C=CC1CNC(=S)O1 (centres undefined),,50,
CC1=CCC2CC1C2(C)C (centres undefined),,,log10 Henry constant (atm·m³/mol): -0.873; log10 vapour pressure (mmHg): 0.677; ready biodegradability: readily biodegradable
CS(=O)(=O)O,,20,log10 vapour pressure (mmHg): -3.37; ready biodegradability: readily biodegradable
CC(C)(C)c1cc(C(=O)O)c(O)c(C(C)(C)C)c1,,,ready biodegradability: not readily biodegradable
Nc1nc(F)nc2c1ncn2[C@@H]1O[C@H](CO)[C@@H](O)[C@@H]1O,,260,
FC(F)(F)C1(F)C(F)(F)C(F)(F)C(F)(F)C(F)(F)C1(F)F,76.3,-44.7,log10 vapour pressure (mmHg): 2.02
OCCOc1ccc(N=Nc2ccccc2)cc1,,,log10 vapour pressure (mmHg): -7.67
ON=C(C(=NO)c1ccco1)c1ccco1,,167,
O=Cc1c(F)c(F)cc(F)c1F,178,,
CC(=O)c1ccccc1C,214,,
